# Results published in patent US6649763B1, “Optically active quinoline carboxylic acid derivatives with 7-pyrrolidine substituents causing optical activity and a process for the preparation thereof” (Dong Wha Pharm. Ind. Co., Ltd., priority 1999, dated 2003).
# Legend:
# Escherichia coli DC 0 = assay: Antibacterial activity in vitro (MIC, agar dilution); assay type: cell-based; conditions: DC0, standard strain Escherichia coli DC 0, read-out: minimum inhibitory concentration (MIC)
# Procedure: (§1) The optically active quinoline carboxylic acid derivatives of the present invention were tested as to whether they could be useful as antibacterial compounds. In this regard, the compounds were measured for minimum inhibitory concentration (MIC: unit μg/ml) according to an agar dilution process (Hoechst 345) in which Muller-Hinton agars were diluted two fold. For comparison, ciprofloxacin and sparfloxacin were used as controls. Corresponding enantiomers and racemates of the compounds of interest were also used as comparative ones. Bacteria were inoculated at an amount of about 10^7 cfu/ml onto each agar. 18 hours after the inoculation at 37° C., the growth of the bacteria was observed. As to methicillin-resistant strains, their growth was observed 48 hours after the inoculation at […]. Hoechst standard strains were used as the test bacteria.
# Escherichia coli DC 2 = assay: as above; assay type: cell-based; conditions: DC2, standard strain Escherichia coli DC 2, read-out: minimum inhibitory concentration (MIC)
# Procedure: as §1
# [1] = system: Pseudomonas aeruginosa 1771M; assay: as above; assay type: cell-based; conditions: read-out: minimum inhibitory concentration (MIC)
# Procedure: as §1
# [2] = system: Staphylococcus aureus 121E; assay: as above; assay type: cell-based; conditions: resistant strain Staphylococcus aureus 121E, read-out: minimum inhibitory concentration (MIC)
# Procedure: as §1
# [3] = system: Staphylococcus aureus 179; assay: as above; assay type: cell-based; conditions: resistant strain Staphylococcus aureus 179, read-out: minimum inhibitory concentration (MIC)
# Procedure: as §1
# [4] = system: Staphylococcus aureus 208E; assay: as above; assay type: cell-based; conditions: resistant strain Staphylococcus aureus 208E, read-out: minimum inhibitory concentration (MIC)
# Procedure: as §1
# [5] = system: Staphylococcus aureus 241; assay: as above; assay type: cell-based; conditions: resistant strain Staphylococcus aureus 241, read-out: minimum inhibitory concentration (MIC)
# Procedure: as §1
# [6] = system: Staphylococcus aureus 256E; assay: as above; assay type: cell-based; conditions: resistant strain Staphylococcus aureus 256E, read-out: minimum inhibitory concentration (MIC)
# Procedure: as §1
# [7] = system: Staphylococcus aureus 285; assay: as above; assay type: cell-based; conditions: standard strain Staphylococcus aureus 285, read-out: minimum inhibitory concentration (MIC)
# Procedure: as §1
# [8] = system: Staphylococcus aureus 293; assay: as above; assay type: cell-based; conditions: resistant strain Staphylococcus aureus 293, read-out: minimum inhibitory concentration (MIC)
# Procedure: as §1
# [9] = system: Staphylococcus aureus 303; assay: as above; assay type: cell-based; conditions: resistant strain Staphylococcus aureus 303, read-out: minimum inhibitory concentration (MIC)
# Procedure: as §1
# [10] = system: Staphylococcus aureus 503; assay: as above; assay type: cell-based; conditions: standard strain Staphylococcus aureus 503, read-out: minimum inhibitory concentration (MIC)
# Procedure: as §1
# [11] = system: Staphylococcus aureus 690E; assay: as above; assay type: cell-based; conditions: resistant strain Staphylococcus aureus 690E, read-out: minimum inhibitory concentration (MIC)
# Procedure: as §1
# [12] = system: Staphylococcus aureus 692E; assay: as above; assay type: cell-based; conditions: resistant strain Staphylococcus aureus 692E, read-out: minimum inhibitory concentration (MIC)
# Procedure: as §1
# [13] = system: Staphylococcus aureus 693E; assay: as above; assay type: cell-based; conditions: resistant strain Staphylococcus aureus 693E, read-out: minimum inhibitory concentration (MIC)
# Procedure: as §1
# [14] = system: Staphylococcus aureus 88E; assay: as above; assay type: cell-based; conditions: resistant strain Staphylococcus aureus 88E, read-out: minimum inhibitory concentration (MIC)
# Procedure: as §1
# [15] = system: Staphylococcus aureus SG511; assay: as above; assay type: cell-based; conditions: standard strain Staphylococcus aureus SG511, read-out: minimum inhibitory concentration (MIC)
# Procedure: as §1
# [16] = system: Staphylococcus epidermidis 319; assay: as above; assay type: cell-based; conditions: Staphylococcus epidermidis, 319, resistant strain Staphylococcus epidermidis 319, read-out: minimum inhibitory concentration (MIC)
# Procedure: as §1
# [17] = system: Staphylococcus epidermidis 329; assay: as above; assay type: cell-based; conditions: Staphylococcus epidermidis, 329, resistant strain Staphylococcus epidermidis 329, read-out: minimum inhibitory concentration (MIC)
# Procedure: as §1
# [18] = system: Streptococus faecium MD 8b; assay: as above; assay type: cell-based; conditions: standard strain Streptococus faecium MD 8b, read-out: minimum inhibitory concentration (MIC)
# Procedure: as §1
# [19] = system: Streptococus pyogenes 308A; assay: as above; assay type: cell-based; conditions: standard strain Streptococus pyogenes 308A, read-out: minimum inhibitory concentration (MIC)
# Procedure: as §1
# [20] = system: Streptococus pyogenes 77A; assay: as above; assay type: cell-based; conditions: standard strain Streptococus pyogenes 77A, read-out: minimum inhibitory concentration (MIC)
# Procedure: as §1
# Enterobacter cloacae P99 = assay: as above; assay type: cell-based; conditions: standard strain Enterobacter cloacae P99, read-out: minimum inhibitory concentration (MIC)
# Text: Corresponding enantiomers and racemates of the compounds of interest were also used as comparative ones. Bacteria were inoculated at an amount of about 10^7 cfu/ml onto each agar. […] Hoechst standard strains were used as the test bacteria.
# Escherichia coli = assay: Antibacterial activity in vitro, potency comparison; assay type: cell-based; conditions: against Escherichia coli, a representative Gram-negative strain
# Procedure: as §1
# Gram-positive bacteria = assay: as above; assay type: cell-based; conditions: against Gram-positive bacteria
# Procedure: as §1
# [21] = system: Staphylococcus aureus and Staphylococcus epidermis, both resistant to quinolone antibacterial agents; assay: as above; assay type: cell-based
# Procedure: as §1
# in vivo = conditions: SD, rat, in vivo, po, 40 mg/kg
# Procedure: After being starved for 16 hours, SD rats were orally administered at a dose of 40 mg/5 ml/kg with the compounds of interest and at a dose of 50 mg/5 ml/kg with the control. Immediately after being drawn at predetermined times from the eyeballs, blood was separated into plasma and other ingredients and quantitatively analyzed for pharmacokinetic parameters by use of high performance liquid chromatograph (HPLC).
# Phototoxicity test = assay type: in vivo; conditions: CD-1 female mice, oral 50 mg/kg
# Procedure: It is known that the presence of a halogen atom at the 8-position of the quinolone nuclei causes phototoxicity.
# After 16 hours of starvation, CD-1 female mice were orally administered with a dose of 50 mg/kg of the compounds and allowed to be exposed for 4.5 hours to a UVA light source. The mice were located 15 cm away from the light source. Whether the mice were damaged in their ears was adopted as a main factor for the phototoxicity and determined after 24 hour and 48 hour UV exposure. The edema which the mice suffered were examined by measuring the thickness changes of their ears with the aid of electronic calipers and calculating average values. Also, an observation was made as to whether the mice suffered from erythema.
# [22] = against resistant Staphylococcus aureus and Staphylococcus epidermis
# [23] = against resistant staphylcoccus aureus and staphylococcus epidermis (Table 2)
# [24] = after 48 hours of the UV exposure
smiles,measurement,setting,value
"CO/N=C1\CN(c2c(F)c(N)c3c(=O)c(C(=O)O)cn(C4CC4)c3c2F)CC1(C)CN.Cl (single isomer, unassigned; (-)) [Example 14, (−)-5-Amino-7-(4-aminomethyl-4-methyl-3-(Z)-methyloxyiminopyrrolidin-1-yl)-1-cyclopropyl-6,8-difluoro-4-oxo-1,4-dihydro-3-quinolinecarboxylic Acid Hydrochloride]",MIC,Escherichia coli DC 0,4 ng/mL
same,MIC,Escherichia coli DC 2,< 2 ng/mL
same,MIC,[1],195 ng/mL
same,MIC,[2],< 2 ng/mL
same,MIC,[3],13 ng/mL
same,MIC,[4],< 2 ng/mL
same,MIC,[5],13 ng/mL
same,MIC,[6],< 2 ng/mL
same,MIC,[7],< 2 ng/mL
same,MIC,[8],13 ng/mL
same,MIC,[9],13 ng/mL
same,MIC,[10],< 2 ng/mL
same,MIC,[11],< 2 ng/mL
same,MIC,[12],< 2 ng/mL
same,MIC,[13],< 2 ng/mL
same,MIC,[14],< 2 ng/mL
same,MIC,[15],< 2 ng/mL
same,MIC,[16],25 ng/mL
same,MIC,[17],25 ng/mL
same,MIC,[18],13 ng/mL
same,MIC,[19],4 ng/mL
same,MIC,[20],< 2 ng/mL
same,MIC,Enterobacter cloacae P99,< 2 ng/mL
same,fold more potent antibacterial effect than ciprofloxacin,Escherichia coli,49 fold
same,fold more potent antibacterial effect than sparfloxacin,Escherichia coli,12-49 fold
same,fold higher antibacterial activity than ciprofloxacin,Gram-positive bacteria,30-781 fold
same,fold higher antibacterial activity than sparfloxacin,Gram-positive bacteria,24-195 fold
same,times as potent in antibacterial activity as ciprofloxacin,[21]; [22],129-962 times
same,times as potent in antibacterial activity as sparfloxacin,[21]; [22],24-481 times
same,fold more potent antibacterial activity than its enantiomer,[21]; [23],2-63 fold
same,fold more potent antibacterial activity than its racemate,[21]; [23],up to four fold more potent
same,Cmax,in vivo,6670 ± 3330 ng/mL
same,half-life,in vivo,6.94 h
same,"Thickness of mice's ears after UV exposure, After 24 hr",Phototoxicity test; UVA light source,21.6 ± 0.52
same,"Thickness of mice's ears after UV exposure, After 48 hr",Phototoxicity test; UVA light source,21.6 ± 0.52
same,edema and erythema observed after UV exposure,Phototoxicity test; [24],no erythema was observed
same,increase in ear thickness compared with before the UV exposure,Phototoxicity test; [24],16.8%
same,"Thickness of mice's ears, Before UV exposure",Phototoxicity test; baseline before UVA,18.5 ± 0.76
